# Experimental data reported in article PMC6100073, “Activation of Anthracene Endoperoxides in Leishmania and Impairment of Mitochondrial Functions” (Molecules : A Journal of Synthetic Chemistry and Natural …, 2018).
# Read-outs that look alike come from different tables or passages of the source.
# Legend:
# [1] = test system: axenic Leishmania tarentolae amastigotes (axLtA); assay: MTT viability assay in axenic Leishmania tarentolae amastigotes; assay type: cell-based
# Protocol: An aliquot of the original LtP culture broth that was equivalent to 108 × 10^6 cells was centrifuged at 2000× g for 10 min (Sorvall RC26 Plus, rotor: SH-3000, Thermo Fisher Scientific, Waltham, MA, USA). The resulting supernatant was discarded, and the cell pellet was resuspended in 10 mL of Schneider’s medium (adjusted to a pH of 4.5 using HCl; containing 50% FCS, 25,000 U/L penicillin, and 25 mg/L streptomycin). The cell suspension was transferred and cultured in a 50 mL TubeSpin bioreactor at 32 °C. Every 3–4 days, the cells were passaged. Therefore, the cell broth was centrifuged at 2000× g for 10 min, and the supernatant was discarded. The cells were resuspended in fresh medium. During the first 14 days, after the culture was started, the cells transformed from the promastigote to the axenic amastigote state (axLtA). Subsequent to this initial period, the axenic amastigotes were passaged every 3–4 days. To determine cell density of the broth, an aliquot of the suspension, usually 1 mL, was transferred into an Eppendorf tube. The cells were then diluted 1:2 up to 1:40 using PBS, depending on the cell density of the broth. An aliquot of 20 µL of this dilution was further diluted 1:2 with a 2% formaldehyde solution (in PBS). Of this final suspension, 10 µL were transferred to each counting chamber of a standard Neubauer chamber (VWR, Wien, Austria). The cells were incubated for 5 min at 25 °C to let them sediment. Photographs of the counting chambers were taken using a light microscope (Lacerta LIS-5 microscope, Lacerta GmbH, Vienna, Austria) with an attached camera. The photos were obtained at a magnification of 100×. Four photos of every counting chamber were taken, resulting in a total of eight photos. The pictures were then analyzed with the Fiji ImageJ (2.0.0) software (Wayne Rasband, National Institutes of Health (NIH), Bethesda, Maryland (MD), USA). The results were averaged giving the final cell number of the culture broth.
# Owing to the acidic conditions needed for axLtA (pH 4.5), viability assays with axLtA were carried out using MTT instead of resazurin that is unstable in an acidic environment. Cell suspensions (200 µL) of axLtA (6 × 10^6 parasites/mL) in Schneider’s medium (pH = 4.5), containing 25,000 U/L penicillin, 25 mg/L streptomycin, and 50% FCS were prepared and distributed in 96-well round-bottom microplates. Then compounds were added (leading to a final vehicle concentration of max. 2% DMSO in the wells). Subsequently, five 1:5 serial dilution steps were performed. Control rows were loaded with 200 µL of either Schneider’s medium or axLtA suspension. After incubation at 32 °C for 48 h, 20 µL of MTT solution (in PBS) were added to each well (1 mM final concentration) and incubated for additional 4 h. Then plates were centrifuged at 400× g for 5 min (Hettich Rotina 420, Tuttlingen, Germany), and the supernatant was discarded. DMSO (100 µL) was added to each well and incubated at 32 °C for 10 min. Then the OD at 570 nm and 630 nm was determined using a plate reader (Perkin Elmer Enspire, Rodgau, Germany).
# Calculations were carried out using Microsoft Excel (Microsoft). The graphs were created using Origin 6.1 (OriginLab Corporation, Northampton, MA, USA). The half maximal inhibitory concentrations (IC50) were determined from non-linear concentration–response curves using a four-parameter logistic model and expressed as the mean ± standard deviation (SD). Statistically significant differences of p <0.05 were identified using Students t-test.
# LtP = assay: EPR (CMH oxidation): superoxide formation in LtP; assay type: cell-based, Leishmania tarentolae; details: 20 µM AA or 100 µM other compounds, 500 × 10^6 LtP/mL, 400 µM CMH, DFO, DTPA, 5 min, 25 °C
# Protocol: To measure superoxide radical (O2^•−) formation induced by AcEPs in LtP, EPR spectroscopy was used. An aliquot of the cell broth was transferred into an Eppendorf tube that was centrifuged (Hettich Universal 16, 20 °C, 2000× g, 10 min). The supernatant was discarded, the cell pellet was resuspended in PBS and centrifuged again. After removal of the supernatant, the cell pellet was resuspended in a mixture of PBS, 15 mM glucose (PBS/Glu), DFO (100 µM), and DTPA (25 µM). […] The cell suspension was aliquoted. CMH was added as detection agent leading to a final concentration of 400 µM. After 5 min of incubation at 25 °C, the respective substance was added resulting in final concentrations of 20 µM antimycin A (AA) or 100 µM of AcEP1117, AcEP1118, AcEP1129, AcEP1130, Ac, and AQ. Samples containing LtP and CMH were used as negative control. Samples containing PBS/Glu and CMH were used as negative control as well. After 5 min of incubation at 25 °C with the respective substance, aliquots of 17 µL of the cell suspensions were aspirated into a PTFE tube (outer diameter 0.7 mm). The tube was transferred into the MD5 resonator of the EPR spectrometer. Immediately, the measurement was started using the following parameters: microwave frequency 9.684 GHz; microwave power 20 mW, modulation frequency 100 kHz; modulation amplitude 1 G; time constant 0.82 s; center field 3449 G; scan rate 14 G/min; sweep width 100 G; scan time 419 s; attenuation 2.52 × 10^4; and scans 5.
# [2] = Leishmania tarentolae, 48 h, pH 4.5, MTT assay, endpoint at 48 h, 6 × 10^6 axLtA/mL, pH 4.5, read-out: IC50 (µM) Mean ± SD axLtA
SMILES,"IC50 [1, 2]",CMH oxidation (superoxide radical formation) in LtP (LtP),"IC50 ([1]; Leishmania tarentolae, 48 h, pH 4.5, read-out: IC50 (µM) Mean ± SD axLtA, MTT assay, endpoint at 48 h, 6 × 10^6 axLtA/mL, pH 4.5)","IC50 ([1]; MTT assay, endpoint at 48 h, 6 × 10^6 axLtA/mL, pH 4.5, read-out: IC50 (µM) Mean ± SD axLtA)"
"CC12OOC(C)(c3ccccc31)c1ccccc12 [AcEP1118, 9,10-dimethyl-9,10-dihydro-9,10-epidioxidoanthracene]",6.43 ± 0.4 µM,failed to cause any enhanced oxidation of CMH,,
"CCc1ccc2c(c1)C1OOC2c2ccccc21 (centres unmarked) [AcEP1130, 2-ethyl-9,10-dihydro-9,10-epidioxidoanthracene]",15.3 ± 0.31 µM,an increased CMH oxidation rate occurred,,
"O=C1c2ccccc2C(=O)c2ccccc21 [AQ, anthraquinone, reference compound]",369 ± 9.81 µM,did not trigger additional CMH oxidation in LtP,,
"c1ccc2cc3ccccc3cc2c1 [Ac, anthracene]",,did not trigger additional CMH oxidation in LtP,> 400 µM,
"c1ccc2c(c1)C1OOC2c2ccccc21 [AcEP1117, 9,10-dihydro-9,10-epidioxidoanthracene]",56.4 ± 15 µM,failed to cause any enhanced oxidation of CMH,,
"N=C(N)c1ccc(OCCCCCOc2ccc(C(=N)N)cc2)cc1 [Pen, pentamidine, reference compound]",< 1 µM,,,0.67 ± 0.31 µM
"CC12OOC(c3ccccc31)c1ccccc12 [AcEP1129, 9-methyl-9,10-dihydro-9,10-epidioxidoanthracene]",3.29 ± 0.13 µM,an increased CMH oxidation rate occurred,,
